US20220409629A1, “BENZODIAZEPINE DERIVATIVES FOR TREATING A RESPIRATORY SYNCYTIAL VIRUS (RSV) INFECTION” (priority 2019, published 2022)

Experiments:
RSV A2 = assay: RSV plaque reduction assay; format: cell-based, respiratory syncytial virus (RSV); settings: human respiratory syncytial virus, HepG2; Hep-G2 cells, RSV A2, mean of at least two experiments
Method: Compounds were subjected to RSV plaque reduction assays according to the following protocol.
Hep-G2 cells (ECACC, 85011430) were passaged in flasks and seeded in 24-well plates in DMEM containing antibiotics and supplemented with 10% FBS. During inoculation and subsequent incubation, cells were cultured in DMEM containing 2% FBS. 100 plaque forming unit/well of RSV (RSV A2 ECACC, 0709161v) was mixed with eight serial dilutions of compound. Subsequently, 100 μL of the virus/compound mixtures was added to confluent Hep-G2 cell monolayers. The cells and virus/compound mixtures were incubated at 37° C. in a humidified 5% CO2 incubator for 2 h prior to removal of the inoculum and addition of 1 mL of overlay (DMEM containing 2% FBS and 0.8% CMC) containing compound dilutions. The cells and were incubated at 37° C. in a humidified 5% CO2 incubator for 2 days.
Cells were washed with PBS before adding 75/25% v/v EtOH/MeOH, for 3 min. Fixative was removed and plates were washed with PBS. A pre-titrated amount of the primary antibody was added in 200 μL PBS/2% milk powder, and plates incubated for 90 min at 37° C. The plates were washed 3 times with PBS/0.05% Tween20 before addition of rabbit anti-goat horse radish peroxidase in 200 μL PBS/2% milk powder, and incubated for 1 h at 37° C. Following three wash steps with PBS/0.05% Tween20, 200 μL ready-to-use TrueBlue was added and plates were incubated at rt for 10-15 min before washing with water. After removal of water, plates were air-dried in the dark.
Plates were scanned and analysed using the Immunospot S6 Macro analyser, which is equipped with BioSpot analysis software for counting immunostained plaques (virospots). Plaque counts were used to calculate % infection relative to the mean of the plaque count in the virus control wells for RSV. The EC50 value was calculated as 50% reduction in signal, respectively, by interpolation of inhibition curves fitted with a 4-parameter nonlinear regression with a variable slope in Dotmatics. Plaque EC50 and cell toxicity CC50 values are a mean of at least two experiments and figures are rounded to whole units.

Cell cytotoxicity CC50 = format: cell-based; settings: human; mean of at least two experiments
[1] = Liver microsomal stability, rat; format: in vitro ADME; settings: pH 7.4; rat liver microsomes, 0.5 mg/mL protein, 1 μM compound, NADPH; >80% remaining at 45 min denoted >140; read-out: Liver Microsomal Stability: t1/2 (min); rat
Method: (§1) Compounds were subjected to the following assays to investigate liver microsomal stability, permeability and plasma protein binding.
(§2) Pooled liver microsomes were purchased from a reputable commercial supplier and stored at −80° C. prior to use. Microsomes (final protein concentration 0.5 mg/mL), 0.1 M phosphate buffer pH 7.4 and test compound (final substrate concentration 1 μM; final DMSO concentration 0.25%) were pre-incubated at 37° C. prior to the addition of NADPH (final concentration 1 mM) to initiate the reaction. The final incubation volume was 50 μL. A control incubation was included for each compound tested where 0.1 M phosphate buffer pH 7.4 was added instead of NADPH (minus NADPH). Two control compounds were included with each species. All incubations were performed singularly for each test compound. Each compound was incubated for 0, 5, 15, 30 and 45 min. The control (minus NADPH) was incubated for 45 min only. The reactions were stopped by transferring incubate into acetonitrile at the appropriate time points, in a 1:3 ratio. The termination plates are centrifuged at 3,000 rpm for 20 min at 4° C. to precipitate the protein. Following protein precipitation, the sample supernatants were combined in cassettes of up to 4 compounds, internal standard added, and samples analysed by LC-MS/MS. From a plot of ln peak area ratio (compound peak area/internal standard peak area) against time, the gradient of the line was determined. Subsequently, half-life (t1/2) and intrinsic clearance (CLint) were calculated.

[2] = Liver microsomal stability, dog; format: in vitro ADME; settings: pH 7.4; dog liver microsomes, 0.5 mg/mL protein, 1 μM compound, NADPH; >80% remaining at 45 min denoted >140; read-out: Liver Microsomal Stability: t1/2 (min); dog
Method: as §1, §2

[3] = Liver microsomal stability, human; format: in vitro ADME; settings: pH 7.4; human liver microsomes, 0.5 mg/mL protein, 1 μM compound, NADPH; >80% remaining at 45 min denoted >140; read-out: Liver Microsomal Stability: t1/2 (min); human
Method: as §1, §2

Row | Compound | EC50 (RSV A2) [nM] | CC50 (Cell cytotoxicity CC50) [nM] | half-life [1] [min] | half-life [2] [min] | half-life [3] [min]
1 | CCn1ncc(C(=O)N[C@H]2N=C(c3ccccc3)c3ccccc3NC2=O)c1-c1ccc(NC)nc1F [Example 1, 1-Ethyl-5-[2-fluoro-6-(methylamino)pyridin-3-yl]-N-[(3S)-2-oxo-5-phenyl-1,3-dihydro-1,4-benzodiazepin-3-yl]pyrazole-4-carboxamide] | 91 | > 25000 | 24.4 | 11.1 | 48.1
2 | CCNc1ccc(-c2c(C(=O)N[C@H]3N=C(c4ccccc4)c4ccccc4NC3=O)cnn2CC)c(F)n1 [Example 2, 1-Ethyl-5-[6-(ethylamino)-2-fluoropyridin-3-yl]-N-[(3S)-2-oxo-5-phenyl-1,3-dihydro-1,4-benzodiazepin-3-yl]pyrazole-4-carboxamide] | 88 | > 25000 | 30.3 | 23.9 | 44.4
3 | CCn1ncc(C(=O)N[C@H]2N=C(c3ccccc3)c3ccccc3NC2=O)c1-c1ccc(NC2CCC2)nc1F [Example 5, 5-[6-(Cyclobutylamino)-2-fluoropyridin-3-yl]-1-ethyl-N-[(3S)-2-oxo-5-phenyl-1,3-dihydro-1,4-benzodiazepin-3-yl]pyrazole-4-carboxamide] | 87 | > 25000 | 47.4 | 45.7 | 50.1
4 | CCn1ncc(C(=O)N[C@H]2N=C(c3ccccc3)c3ccccc3NC2=O)c1-c1ccc(NC2(C)CC2)nc1F [Example 6, 1-Ethyl-5-[2-fluoro-6-[(1-methylcyclopropyl)amino]pyridin-3-yl]-N-[(3S)-2-oxo-5-phenyl-1,3-dihydro-1,4-benzodiazepin-3-yl]pyrazole-4-carboxamide] | 32 | > 25000 | 31.5 | 72.5 | 23
5 | CCn1ncc(C(=O)N[C@H]2N=C(c3ccccc3)c3ccccc3NC2=O)c1-c1ncc(NC2CC2)cc1F [Example 7, 5-[5-(Cyclopropylamino)-3-fluoropyridin-2-yl]-1-ethyl-N-[(3S)-2-oxo-5-phenyl-1,3-dihydro-1,4-benzodiazepin-3-yl]pyrazole-4-carboxamide] | 69 | > 25000 | 595 | 85.8 | 97
6 | CCn1ncc(C(=O)N[C@H]2N=C(c3ccccc3)c3ccccc3NC2=O)c1-c1ncc(NC(C)C)cc1F [Example 8, 1-Ethyl-5-[3-fluoro-5-(propan-2-ylamino)pyridin-2-yl]-N-[(3S)-2-oxo-5-phenyl-1,3-dihydro-1,4-benzodiazepin-3-yl]pyrazole-4-carboxamide] | 32 | > 25000 | > 140 | 104 | 193
7 | CCn1ncc(C(=O)N[C@H]2N=C(c3ccccc3)c3ccccc3NC2=O)c1-c1ccc(NC(C)C)cc1F [Example 9, 1-Ethyl-5-[2-fluoro-4-(propan-2-ylamino)phenyl]-N-[(3S)-2-oxo-5-phenyl-1,3-dihydro-1,4-benzodiazepin-3-yl]pyrazole-4-carboxamide] | 73 | > 25000 | 141 | 89.1 | 220
8 | CCNc1ccc(-c2c(C(=O)N[C@H]3N=C(c4ccccc4)c4ccccc4NC3=O)c(C)nn2CC)c(F)n1 [Example 10, 1-Ethyl-5-[6-(ethylamino)-2-fluoropyridin-3-yl]-3-methyl-N-[(3S)-2-oxo-5-phenyl-1,3-dihydro-1,4-benzodiazepin-3-yl]pyrazole-4-carboxamide] | 89 | > 25000 | 20.2 | 85.8 | 48.1
9 | CCn1ncc(C(=O)N[C@H]2N=C(c3ccccc3)c3cccc(F)c3NC2=O)c1-c1ncc(NC2CC2)cc1F [Example 12, 5-[5-(Cyclopropylamino)-3-fluoropyridin-2-yl]-1-ethyl-N-[(3S)-9-fluoro-2-oxo-5-phenyl-1,3-dihydro-1,4-benzodiazepin-3-yl]pyrazole-4-carboxamide] | 45 | > 25000 | 51.1 | 68.5 | 193
10 | CC(C)Nc1ccc(-c2c(C(=O)N[C@H]3N=C(c4ccccc4)c4cccc(F)c4NC3=O)cnn2C2COC2)c(F)n1 [Example 41, N-[(3S)-9-Fluoro-2-oxo-5-phenyl-1,3-dihydro-1,4-benzodiazepin-3-yl]-5-[2-fluoro-6-(propan-2-ylamino)pyridin-3-yl]-1-(oxetan-3-yl)pyrazole-4-carboxamide] | 91 | > 25000 |  |  | 
11 | CC(C)c1ccc(-c2c(C(=O)N[C@H]3N=C(c4ccccc4)c4cccc(F)c4NC3=O)cnn2C2CCOCC2)c(F)c1 [Example 45, 5-(2-Fluoro-4-propan-2-ylphenyl)-1-(oxan-4-yl)-N-[(3S)-9-fluoro-2-oxo-5-phenyl-1,3-dihydro-1,4-benzodiazepin-3-yl]pyrazole-4-carboxamide] | 38 | > 25000 |  |  | 
12 | CCc1ccc(-c2c(C(=O)N[C@H]3N=C(c4ccccc4)c4ccccc4NC3=O)cnn2C2CCOCC2)c(F)c1 [Example 46, 5-(4-Ethyl-2-fluorophenyl)-1-(oxan-4-yl)-N-[(3S)-2-oxo-5-phenyl-1,3-dihydro-1,4-benzodiazepin-3-yl]pyrazole-4-carboxamide] | 34 | > 25000 |  |  | 
13 | CCc1ccc(-c2c(C(=O)N[C@H]3N=C(c4ccccc4)c4ccccc4NC3=O)cnn2C2CCOCC2)c(F)n1 [Example 52, 5-(6-Ethyl-2-fluoropyridin-3-yl)-1-(oxan-4-yl)-N-[(3S)-2-oxo-5-phenyl-1,3-dihydro-1,4-benzodiazepin-3-yl]pyrazole-4-carboxamide] | 87 | > 25000 |  |  | 
14 | CCOc1nn(CC)c(-c2ccccc2F)c1C(=O)N[C@H]1N=C(c2ccccc2)c2ccccc2NC1=O [Example 54, 3-Ethoxy-1-ethyl-5-(2-fluorophenyl)-N-[(3S)-2-oxo-5-phenyl-1,3-dihydro-1,4-benzodiazepin-3-yl]pyrazole-4-carboxamide] | 51 | > 25000 |  |  | 
15 | O=C(N[C@H]1N=C(c2ccccc2)c2cccc(F)c2NC1=O)c1cnn(C2CCOCC2)c1-c1ccc(NC2CC2)nc1 [Example 56, 5-[6-(Cyclopropylamino)pyridin-3-yl]-1-(oxan-4-yl)-N-[(3S)-9-fluoro-2-oxo-5-phenyl-1,3-dihydro-1,4-benzodiazepin-3-yl]pyrazole-4-carboxamide] | 78 | > 25000 |  |  | 
16 | CC(C)Nc1ccc(-c2c(C(=O)N[C@H]3N=C(c4ccccc4)c4cccc(F)c4NC3=O)cnn2C2CCOCC2)cn1 [Example 58, 1-(Oxan-4-yl)-5-[6-(propan-2-ylamino)pyridin-3-yl]-N-[(3S)-9-fluoro-2-oxo-5-phenyl-1,3-dihydro-1,4-benzodiazepin-3-yl]pyrazole-4-carboxamide] | 99 | > 25000 |  |  | 
17 | CCc1ccc(-c2c(C(=O)N[C@H]3N=C(c4ccccc4)c4cccc(F)c4NC3=O)cnn2C2CCN(C)CC2)c(F)c1 [Example 59, 5-(4-Ethyl-2-fluorophenyl)-1-(1-methylpiperidin-4-yl)-N-[(3S)-9-fluoro-2-oxo-5-phenyl-1,3-dihydro-1,4-benzodiazepin-3-yl]pyrazole-4-carboxamide] | 107 | 15200 |  |  | 
